Three compounds from ChEMBL document CHEMBL5696442, “Discovery of type II inhibitors of TGFβ-activated kinase 1 (TAK1) and mitogen-activated protein kinase kinase kinase kinase 2 (MAP4K2)” (J Med Chem, 2015) can be followed below.

Assay [1] addresses Ribosomal protein S6 kinase alpha-5 (Homo sapiens) (UniProt O75582). Kind of assay: Inhibition of MSK1 domain1 ATP labeling site in human Huh-7 cell lysate at 1 uM by KiNativ Profiling analysis relative to control. It counts as subcellular.
Assay [2] concerns the target T1, Serine/threonine-protein kinase TBK1 (Homo sapiens) (UniProt Q9UHD2).
T1 sequence (whole entry): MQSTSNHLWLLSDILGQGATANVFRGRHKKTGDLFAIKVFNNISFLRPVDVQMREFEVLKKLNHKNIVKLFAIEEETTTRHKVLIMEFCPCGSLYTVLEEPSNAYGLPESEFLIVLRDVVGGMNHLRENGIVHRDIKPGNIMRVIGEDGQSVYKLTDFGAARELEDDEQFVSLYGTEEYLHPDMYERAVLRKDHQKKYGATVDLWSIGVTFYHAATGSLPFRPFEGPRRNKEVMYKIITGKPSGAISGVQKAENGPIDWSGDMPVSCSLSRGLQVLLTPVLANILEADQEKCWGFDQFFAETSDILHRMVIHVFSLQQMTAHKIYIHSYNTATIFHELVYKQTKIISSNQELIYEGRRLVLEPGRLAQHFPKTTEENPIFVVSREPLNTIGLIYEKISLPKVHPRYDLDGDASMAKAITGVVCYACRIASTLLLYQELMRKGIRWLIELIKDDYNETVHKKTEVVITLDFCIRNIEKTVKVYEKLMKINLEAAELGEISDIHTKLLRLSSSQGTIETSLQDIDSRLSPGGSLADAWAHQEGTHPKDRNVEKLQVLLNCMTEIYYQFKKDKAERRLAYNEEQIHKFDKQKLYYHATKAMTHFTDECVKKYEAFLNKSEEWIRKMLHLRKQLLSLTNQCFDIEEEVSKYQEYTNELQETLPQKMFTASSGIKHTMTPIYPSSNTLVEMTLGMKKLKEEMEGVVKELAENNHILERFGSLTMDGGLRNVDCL
Briefly: Inhibition of TBK1 Lys1 labeling site in human Huh-7 cell lysate at 1 uM by KiNativ Profiling analysis relative to control. It is filed as subcellular.

For assay [3], the target named is T2, Inhibitor of nuclear factor kappa-B kinase subunit beta (Homo sapiens) (UniProt O14920).
T2 sequence (whole entry): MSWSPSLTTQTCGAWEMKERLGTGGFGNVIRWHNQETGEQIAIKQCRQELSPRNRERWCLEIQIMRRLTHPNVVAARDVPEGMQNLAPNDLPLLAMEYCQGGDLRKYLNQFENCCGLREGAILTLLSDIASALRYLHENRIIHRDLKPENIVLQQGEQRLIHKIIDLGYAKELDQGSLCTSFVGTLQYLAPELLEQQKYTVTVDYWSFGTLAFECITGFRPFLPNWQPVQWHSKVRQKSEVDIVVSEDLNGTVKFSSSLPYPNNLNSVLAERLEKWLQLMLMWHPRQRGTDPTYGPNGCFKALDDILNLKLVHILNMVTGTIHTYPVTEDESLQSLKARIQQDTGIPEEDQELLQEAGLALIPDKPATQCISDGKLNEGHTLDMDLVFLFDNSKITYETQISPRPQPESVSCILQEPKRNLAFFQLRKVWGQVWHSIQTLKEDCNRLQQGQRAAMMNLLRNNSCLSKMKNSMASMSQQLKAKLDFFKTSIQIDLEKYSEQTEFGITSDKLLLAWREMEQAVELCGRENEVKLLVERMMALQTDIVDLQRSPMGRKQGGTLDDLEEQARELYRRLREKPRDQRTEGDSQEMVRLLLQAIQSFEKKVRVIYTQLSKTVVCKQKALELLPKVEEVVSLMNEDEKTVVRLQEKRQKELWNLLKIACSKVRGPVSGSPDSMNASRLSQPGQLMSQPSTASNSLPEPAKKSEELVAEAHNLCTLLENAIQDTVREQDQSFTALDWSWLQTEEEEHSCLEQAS
Briefly: Inhibition of IKKb Lys2 labeling site in human Huh-7 cell lysate at 1 uM by KiNativ Profiling analysis relative to control. It counts as subcellular.

The target of assay [4] is Cyclin-dependent kinase 8 (Homo sapiens) (UniProt P49336). Kind of assay: Inhibition of CDK8 Lys2 labeling site in human Huh-7 cells at 1 uM by KiNativ Profiling analysis relative to control. It counts as cell-based.
The target of assay [5] is Glycogen synthase kinase-3 alpha (Homo sapiens) (UniProt P49840). Kind of assay: Inhibition of GSK3A (unknown origin) at 1 uM by Ambit Kinomescan binding assay relative to control; values are per cent of control.
For assay [6], the target named is STE20/SPS1-related proline-alanine-rich protein kinase (Homo sapiens) (UniProt Q9UEW8). Briefly: Inhibition of STK39 (unknown origin) at 1 uM by Ambit Kinomescan binding assay relative to control.
For assay [7], the target named is Mitogen-activated protein kinase kinase kinase kinase 5 (Homo sapiens) (UniProt Q9Y4K4). Briefly: Inhibition of MAP4K5 (unknown origin) at 1 uM by Ambit Kinomescan binding assay relative to control; values are per cent of control.
Assay [8] has as its target Receptor-interacting serine/threonine-protein kinase 2 (Homo sapiens) (UniProt O43353). Kind of assay: Inhibition of RIPK2 (unknown origin) at 1 uM by Ambit Kinomescan binding assay relative to control.
Assay [9] has as its target Serine/threonine-protein kinase SIK3 (Homo sapiens) (UniProt Q9Y2K2). Briefly: Inhibition of QSK Lys2 labeling site in human A-375 cells at 0.05 uM by KiNativ Profiling analysis relative to control. It is filed as cell-based.
Assay [10] has as its target Tyrosine-protein kinase JAK1 (Homo sapiens) (UniProt P23458). Briefly: Inhibition of JAK1 JH2 pseudokinase domain (unknown origin) at 10 uM by Ambit Kinomescan binding assay.
Assay [11] addresses Interferon-induced, double-stranded RNA-activated protein kinase (Homo sapiens) (UniProt P19525). Briefly: Inhibition of PKR Lys2 labeling site in human A-375 cells at 0.05 uM by KiNativ Profiling analysis relative to control. It counts as cell-based.
In assay [12] the target is Microtubule-associated serine/threonine-protein kinase 2 (Homo sapiens) (UniProt Q6P0Q8). Kind of assay: Inhibition of MAST2 Lys2 labeling site in human A-375 cells at 0.5 uM by KiNativ Profiling analysis relative to control. It counts as cell-based.
Assay [13] has as its target Peripheral plasma membrane protein CASK (Homo sapiens) (UniProt O14936). Kind of assay: Inhibition of CASK Lys1 labeling site in human A-375 cells at 5 uM by KiNativ Profiling analysis relative to control.

Activity calls are given as the source filed them. No cut-off for these calls is given here.

Sequence of Receptor-interacting serine/threonine-protein kinase 2 (Homo sapiens) (O43353 whole entry): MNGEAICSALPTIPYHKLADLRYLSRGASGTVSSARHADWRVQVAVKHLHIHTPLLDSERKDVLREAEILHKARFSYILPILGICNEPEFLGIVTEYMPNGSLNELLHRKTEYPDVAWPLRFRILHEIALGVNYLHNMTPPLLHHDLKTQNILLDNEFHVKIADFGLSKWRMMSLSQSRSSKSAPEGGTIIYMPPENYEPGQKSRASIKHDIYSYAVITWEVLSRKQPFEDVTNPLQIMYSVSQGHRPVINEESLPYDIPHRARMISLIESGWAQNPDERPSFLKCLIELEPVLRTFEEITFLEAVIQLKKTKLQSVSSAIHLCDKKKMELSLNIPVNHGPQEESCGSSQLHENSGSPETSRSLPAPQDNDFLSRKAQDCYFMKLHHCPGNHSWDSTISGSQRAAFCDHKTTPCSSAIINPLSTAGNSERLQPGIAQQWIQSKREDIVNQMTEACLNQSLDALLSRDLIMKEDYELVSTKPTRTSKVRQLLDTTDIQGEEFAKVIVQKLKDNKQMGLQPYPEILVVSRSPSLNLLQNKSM
Sequence of Peripheral plasma membrane protein CASK (Homo sapiens) (O14936 whole entry, looked up): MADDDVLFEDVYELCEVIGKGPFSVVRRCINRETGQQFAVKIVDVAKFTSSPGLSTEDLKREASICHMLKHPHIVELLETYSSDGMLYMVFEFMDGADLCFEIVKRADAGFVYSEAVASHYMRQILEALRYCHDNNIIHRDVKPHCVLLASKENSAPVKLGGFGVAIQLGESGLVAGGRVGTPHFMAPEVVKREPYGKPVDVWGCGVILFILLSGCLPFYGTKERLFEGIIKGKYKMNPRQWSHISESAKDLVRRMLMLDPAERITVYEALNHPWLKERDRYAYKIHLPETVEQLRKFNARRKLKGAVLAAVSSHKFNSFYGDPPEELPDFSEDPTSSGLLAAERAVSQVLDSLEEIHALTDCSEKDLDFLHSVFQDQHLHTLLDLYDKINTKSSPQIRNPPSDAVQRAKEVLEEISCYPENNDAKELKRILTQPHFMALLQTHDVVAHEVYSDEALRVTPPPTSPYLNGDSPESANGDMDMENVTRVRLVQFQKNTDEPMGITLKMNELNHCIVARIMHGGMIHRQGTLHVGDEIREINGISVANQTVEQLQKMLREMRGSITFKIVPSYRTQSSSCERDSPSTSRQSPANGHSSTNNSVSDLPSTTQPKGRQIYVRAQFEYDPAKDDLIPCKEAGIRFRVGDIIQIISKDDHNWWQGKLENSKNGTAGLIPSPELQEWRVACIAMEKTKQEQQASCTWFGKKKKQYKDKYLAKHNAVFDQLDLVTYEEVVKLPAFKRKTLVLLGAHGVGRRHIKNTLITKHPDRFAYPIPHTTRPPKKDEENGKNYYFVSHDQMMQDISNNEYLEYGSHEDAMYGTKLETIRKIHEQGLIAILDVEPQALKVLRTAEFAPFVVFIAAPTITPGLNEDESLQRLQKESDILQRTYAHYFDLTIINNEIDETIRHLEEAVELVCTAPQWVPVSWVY
Sequence of Serine/threonine-protein kinase SIK3 (Homo sapiens) (Q9Y2K2 whole entry, looked up, the tested form may be a part): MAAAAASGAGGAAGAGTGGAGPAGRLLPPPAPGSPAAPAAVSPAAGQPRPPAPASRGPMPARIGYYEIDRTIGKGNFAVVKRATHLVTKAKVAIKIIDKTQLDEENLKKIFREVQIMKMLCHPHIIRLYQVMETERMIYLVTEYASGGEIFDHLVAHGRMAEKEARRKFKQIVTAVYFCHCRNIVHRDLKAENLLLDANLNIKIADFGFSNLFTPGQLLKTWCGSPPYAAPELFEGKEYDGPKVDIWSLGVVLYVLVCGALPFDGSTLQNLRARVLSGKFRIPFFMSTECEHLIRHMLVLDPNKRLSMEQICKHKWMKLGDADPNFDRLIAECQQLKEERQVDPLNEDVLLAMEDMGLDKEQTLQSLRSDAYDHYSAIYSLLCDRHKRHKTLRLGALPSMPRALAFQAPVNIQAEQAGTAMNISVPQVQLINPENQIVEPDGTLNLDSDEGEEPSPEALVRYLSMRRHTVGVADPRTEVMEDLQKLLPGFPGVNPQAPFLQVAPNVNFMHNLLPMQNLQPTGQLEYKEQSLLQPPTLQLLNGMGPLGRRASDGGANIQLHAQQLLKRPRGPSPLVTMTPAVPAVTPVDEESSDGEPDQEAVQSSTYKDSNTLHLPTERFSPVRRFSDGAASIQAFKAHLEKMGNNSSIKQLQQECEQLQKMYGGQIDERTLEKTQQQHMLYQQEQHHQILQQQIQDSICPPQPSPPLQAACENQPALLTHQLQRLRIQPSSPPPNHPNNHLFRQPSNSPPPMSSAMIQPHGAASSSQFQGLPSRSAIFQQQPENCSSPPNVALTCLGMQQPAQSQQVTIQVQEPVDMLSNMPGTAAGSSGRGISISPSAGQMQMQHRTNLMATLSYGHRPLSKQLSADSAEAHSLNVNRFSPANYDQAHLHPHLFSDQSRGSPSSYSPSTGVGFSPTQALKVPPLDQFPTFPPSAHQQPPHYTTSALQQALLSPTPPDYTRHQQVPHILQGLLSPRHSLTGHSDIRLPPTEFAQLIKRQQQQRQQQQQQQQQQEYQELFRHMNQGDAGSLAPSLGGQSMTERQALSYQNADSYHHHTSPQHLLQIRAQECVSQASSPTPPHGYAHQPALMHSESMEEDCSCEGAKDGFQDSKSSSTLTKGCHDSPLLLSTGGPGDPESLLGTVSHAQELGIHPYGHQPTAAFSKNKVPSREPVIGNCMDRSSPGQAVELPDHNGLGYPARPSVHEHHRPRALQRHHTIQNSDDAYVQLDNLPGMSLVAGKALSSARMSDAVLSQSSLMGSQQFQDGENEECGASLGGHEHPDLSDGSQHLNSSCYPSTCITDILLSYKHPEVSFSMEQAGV
Sequence of Ribosomal protein S6 kinase alpha-5 (Homo sapiens) (O75582 whole entry, looked up, the tested form may be a part): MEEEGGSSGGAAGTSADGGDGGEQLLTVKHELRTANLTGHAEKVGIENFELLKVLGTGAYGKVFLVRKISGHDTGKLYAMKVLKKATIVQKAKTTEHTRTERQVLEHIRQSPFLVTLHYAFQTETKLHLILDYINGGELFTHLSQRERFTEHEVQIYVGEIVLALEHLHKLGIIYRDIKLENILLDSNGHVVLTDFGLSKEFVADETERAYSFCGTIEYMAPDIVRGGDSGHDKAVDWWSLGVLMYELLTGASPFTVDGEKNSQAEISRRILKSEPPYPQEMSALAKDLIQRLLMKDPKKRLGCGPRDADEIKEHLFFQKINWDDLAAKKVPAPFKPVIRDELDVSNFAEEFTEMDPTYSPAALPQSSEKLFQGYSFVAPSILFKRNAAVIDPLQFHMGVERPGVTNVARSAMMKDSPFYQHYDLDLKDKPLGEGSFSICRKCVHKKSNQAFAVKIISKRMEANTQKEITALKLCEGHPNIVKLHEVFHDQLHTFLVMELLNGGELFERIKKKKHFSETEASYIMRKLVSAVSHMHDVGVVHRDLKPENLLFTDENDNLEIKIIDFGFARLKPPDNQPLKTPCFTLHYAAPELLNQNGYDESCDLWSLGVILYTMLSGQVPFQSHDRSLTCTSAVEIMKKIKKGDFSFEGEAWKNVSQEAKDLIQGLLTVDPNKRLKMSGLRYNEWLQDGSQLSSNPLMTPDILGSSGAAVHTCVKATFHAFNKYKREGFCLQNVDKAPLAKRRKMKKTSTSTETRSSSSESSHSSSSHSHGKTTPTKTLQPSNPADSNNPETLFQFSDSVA
Sequence of Tyrosine-protein kinase JAK1 (Homo sapiens) (P23458 whole entry, the tested form may be a part): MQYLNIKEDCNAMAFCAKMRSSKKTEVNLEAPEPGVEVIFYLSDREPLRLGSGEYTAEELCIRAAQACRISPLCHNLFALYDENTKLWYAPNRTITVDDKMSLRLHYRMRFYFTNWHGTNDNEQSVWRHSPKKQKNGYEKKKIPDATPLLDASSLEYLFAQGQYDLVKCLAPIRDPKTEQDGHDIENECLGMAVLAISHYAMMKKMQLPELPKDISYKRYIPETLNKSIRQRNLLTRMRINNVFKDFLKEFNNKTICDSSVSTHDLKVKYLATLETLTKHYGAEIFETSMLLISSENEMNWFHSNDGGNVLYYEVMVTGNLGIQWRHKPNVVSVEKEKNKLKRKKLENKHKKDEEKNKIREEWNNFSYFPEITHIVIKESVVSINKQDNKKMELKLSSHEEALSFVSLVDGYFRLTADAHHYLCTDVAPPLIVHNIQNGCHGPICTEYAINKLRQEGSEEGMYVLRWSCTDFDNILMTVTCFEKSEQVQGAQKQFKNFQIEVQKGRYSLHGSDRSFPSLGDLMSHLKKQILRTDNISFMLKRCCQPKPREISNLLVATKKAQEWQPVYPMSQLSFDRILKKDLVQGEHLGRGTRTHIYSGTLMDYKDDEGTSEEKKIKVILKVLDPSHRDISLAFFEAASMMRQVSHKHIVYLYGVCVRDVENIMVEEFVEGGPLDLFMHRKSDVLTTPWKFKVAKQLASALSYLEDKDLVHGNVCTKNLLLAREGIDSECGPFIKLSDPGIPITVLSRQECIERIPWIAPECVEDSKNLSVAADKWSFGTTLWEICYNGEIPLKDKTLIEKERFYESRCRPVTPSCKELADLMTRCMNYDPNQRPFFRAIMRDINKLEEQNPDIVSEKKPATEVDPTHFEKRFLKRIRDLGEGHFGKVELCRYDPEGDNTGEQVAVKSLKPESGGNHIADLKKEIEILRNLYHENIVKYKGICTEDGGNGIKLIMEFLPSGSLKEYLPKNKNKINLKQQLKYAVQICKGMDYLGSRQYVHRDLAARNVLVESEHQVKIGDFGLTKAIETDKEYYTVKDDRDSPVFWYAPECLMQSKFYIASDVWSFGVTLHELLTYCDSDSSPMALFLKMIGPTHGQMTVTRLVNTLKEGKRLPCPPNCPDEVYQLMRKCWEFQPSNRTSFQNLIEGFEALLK

As for `CNc1cc(Oc2cc(C(=O)Nc3cc(N4CCN(C)CC4)cc(C(F)(F)F)c3)ccc2C)ncn1`, the inhibition in [1] was -8%; in assay [2], -1.5%; in assay [3], -5.1%; in [4], 25.8%.
As to `CCN1CCN(Cc2ccc(NC(=O)c3ccc(C)c(/C=C/c4cnc5[nH]ccc5c4OC)c3)cc2C(F)(F)F)CC1`, the results for the residual activity in assay [5] and in assay [7] were 100% and 7.2%, respectively. Besides, the results for the inhibition in assay [6], in [8] and in assay [9] were 70%, 4.5% and 29.6%, respectively.
As to `CCN1CCN(Cc2ccc(NC(=O)c3ccc(C)c(Oc4ccnc5[nH]ccc45)c3)cc2C(F)(F)F)CC1`, in [10], the inhibition entry was “inactive”. Moreover, the figures for the inhibition in assay [11], in assay [12] and in [13] were -8.1%, 16.1% and 6.6%, respectively.
